Key:
Details in all cases: 72 h
Caco-2 [1] = experiment: cell viability relative to DMSO; higher = less toxic
Calu-3 [2] = experiment: as above
HepG2 [3] = experiment: as above
Vero E6 [4] = experiment: as above
Caco-2 [5] = experiment: relative viability EC50 (midpoint between 100% and the lowest measured viability); higher = less toxic
Calu-3 [6] = experiment: as above
HepG2 [7] = experiment: as above
Vero E6 [8] = experiment: as above
Caco-2 [9] = experiment: drug sensitivity score (DSS) for viability; higher = more toxic; extreme values may be limits of the assay
Calu-3 [10] = experiment: as above
HepG2 [11] = experiment: as above
Vero E6 [12] = experiment: as above
U2OS [13] = experiment: cell viability relative to DMSO; higher = less toxic
U2OS [14] = experiment: drug sensitivity score (DSS) for viability; higher = more toxic; extreme values may be limits of the assay
U2OS [15] = experiment: relative viability EC50 (midpoint between 100% and the lowest measured viability); higher = less toxic

SMILES	cell viability (Caco-2 [1]; 1 nM) [%]	cell viability (Caco-2 [1]; 10 nM) [%]	cell viability (Caco-2 [1]; 100 nM) [%]	cell viability (Caco-2 [1]; 1000 nM) [%]	cell viability (Caco-2 [1]; 10000 nM) [%]	cell viability (Calu-3 [2]; 1 nM) [%]	cell viability (Calu-3 [2]; 10 nM) [%]	cell viability (Calu-3 [2]; 100 nM) [%]	cell viability (Calu-3 [2]; 1000 nM) [%]	cell viability (Calu-3 [2]; 10000 nM) [%]	cell viability (HepG2 [3]; 1 nM) [%]	cell viability (HepG2 [3]; 10 nM) [%]	cell viability (HepG2 [3]; 100 nM) [%]	cell viability (HepG2 [3]; 1000 nM) [%]	cell viability (HepG2 [3]; 10000 nM) [%]	cell viability (Vero E6 [4]; 1 nM) [%]	cell viability (Vero E6 [4]; 10 nM) [%]	cell viability (Vero E6 [4]; 100 nM) [%]	cell viability (Vero E6 [4]; 1000 nM) [%]	cell viability (Vero E6 [4]; 10000 nM) [%]	relative viability EC50 (Caco-2 [5]) [µM]	relative viability EC50 (Calu-3 [6]) [µM]	relative viability EC50 (HepG2 [7]) [µM]	relative viability EC50 (Vero E6 [8]) [µM]	drug sensitivity score (Caco-2 [9])	drug sensitivity score (Calu-3 [10])	drug sensitivity score (HepG2 [11])	drug sensitivity score (Vero E6 [12])	cell viability (U2OS [13]; 1 nM) [%]	cell viability (U2OS [13]; 10 nM) [%]	cell viability (U2OS [13]; 100 nM) [%]	cell viability (U2OS [13]; 1000 nM) [%]	cell viability (U2OS [13]; 10000 nM) [%]	drug sensitivity score (U2OS [14])	relative viability EC50 (U2OS [15]) [µM]
C[C@H](CCC(=O)O)[C@H]1CC[C@H]2[C@@H]3CC[C@@H]4C[C@H](O)CC[C@]4(C)[C@H]3CC[C@]12C [lithocholic-acid]	106	96.9	101	98	99	98.9	91.2	98.2	93.3	105	102	96.4	108	90.2	111	102	101	102	101	98.7	> 10	> 10	> 10	> 10	0	0	0	0							
Nc1nc2[nH]cc(CCc3ccc(C(=O)N[C@@H](CCC(=O)O)C(=O)O)cc3)c2c(=O)[nH]1 [pemetrexed]	105	86.8	87.4	96.5	79.3	108	91.9	86.6	83.3	76	85.4	100	97.3	39.4	20.1	85.2	99.1	91.6	70.9	45	> 10	> 10	0.558	0.768	1.2	3.7	11.8	6.5	103	95.5	107	100	68	1.4	
c1ccc2[nH]c(-c3cscn3)nc2c1 [tiabendazole]						105	102	103	97.8	110	116	104	102	97.2	106	93.2	96.8	102	96.3	106		> 10	> 10	> 10		0	0	0							
CCOc1ccc(NC(=S)N2CCC(C(O)(c3ccccc3)c3ccccc3)CC2)cc1 [SF-11]						100	107	96.7	104	96.5	99.5	100	103	109	91.7	101	99.9	98.4	99.8	102		> 10	> 10	> 10		0	0	0	101	96.6	98.4	98.2	100	0	> 10
Cc1c(N(C)CS(=O)(=O)O)c(=O)n(-c2ccccc2)n1C [metamizole]	98.5	107	101	104	104	106	90.6	102	95.7	91.1	99.9	109	100	91.6	102	97.5	97.1	95.6	102	101	> 10	> 10	> 10	> 10	0	0	0	0							
Oc1cc2c(cc1O)CN(C(=S)NCCc1ccc(Cl)cc1)CCC2 [capsazepine]	90.9	98.4	91.2	90.2	65.8	107	103	110	104	92.6	103	114	107	100	86.9	101	101	101	92.2	98.8		> 10	> 10	> 10	2.5	0	0.1	0	98.2	103	97.3	101	97.7	0	> 10

Reference: the supplement of paper PMC13380429
